According to patent US20240101531A1, “PYRIDINAMINE DERIVATIVES AND THEIR USE AS POTASSIUM CHANNEL MODULATORS” (Xenon Pharmaceuticals Inc., priority 2022, published 2024):
Where a name gives a salt, the structure may show the parent alone.

What follows are compounds tested against human KV7.2/KV7.3 (Homo sapiens (Human), UniProt O43525+O43526) (assay: Potassium flux assay (IPG-2 AM dye)). Conditions: TREX HEK 293 or HEK 293 cells expressing human KV7.2/KV7.3; arithmetic mean values.
Assay type: cell-based
In short: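 EC50 from 16 concentrations (2-fold dilutions, top 30 μM), scaled between DMSO baseline and a known KV7.x modulator maximum. Signal is IPG-2 AM fluorescence (ex 530/em 558 nm) after 10 mM KCl challenge buffer addition, following 20 min room-temperature compound exposure of HEK 293 or TREX HEK 293 cells stably expressing human KV7.2/KV7.3.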

| Structure (SMILES) | EC50 [µM] |
| --- | --- |
| Clc1ccc(Nc2nccc3cc(OCCC4COC4)ccc23)cn1 [Example 89, N-(6-chloropyridin-3-yl)-6-(2-(oxetan-3-yl)ethoxy)isoquinolin-1-amine] | < 1 |
| Clc1ccc(Nc2nccc3cc(OC4CCN(Cc5ccccc5)CC4)ccc23)cn1 [Example 90, 6-((1-benzylpiperidin-4-yl)oxy)-N-(6-chloropyridin-3-yl)isoquinolin-1-amine trifluoroacetate] | 1 to 10 |
| CC(Oc1ccc2c(Nc3ccc(Cl)nc3)nccc2c1)C1(F)CC1 (centres unmarked) [Example 91, N-(6-chloropyridin-3-yl)-6-(1-(1-fluorocyclopropyl)ethoxy)isoquinolin-1-amine] | < 1 |
| C[Si](C)(C)CCOCN(c1ccc(Cl)nc1)c1nccc2cc(F)ccc12 [Example 92, N-(6-chloropyridin-3-yl)-6-fluoro-N-((2-(trimethylsilyl)ethoxy)-methyl)isoquinolin-1-amine] | 1 to 10 |
| FC1(F)CCC(Oc2ccc3c(Nc4ccc(Cl)nc4)nccc3c2)CC1 [Example 93, N-(6-chloropyridin-3-yl)-6-((4,4-difluorocyclohexyl)oxy)isoquinolin-1-amine] | < 1 |
| Clc1ccc(Nc2nccc3cc(OCc4cnccn4)ccc23)cn1 [Example 94, N-(6-chloropyridin-3-yl)-6-(pyrazin-2-ylmethoxy)isoquinolin-1-amine] | 10 to 30 |
| O[C@H]1C[C@H](Oc2ccc3c(Nc4ccc(Cl)nc4)nccc3c2)C1 [Example 96, (1r,3r)-3-((1-((6-chloropyridin-3-yl)amino)isoquinolin-6-yl)oxy)cyclobutan-1-ol] | 1 to 10 |
| Clc1ccc(Nc2nccc3cc(OC4CC5CCC(C4)N5Cc4ccccc4)ccc23)cn1 (centres unmarked) [Example 97, 6-((8-benzyl-8-azabicyclo[3.2.1]octan-3-yl)oxy)-N-(6-chloropyridin-3-yl)isoquinolin-1-amine] | 10 to 30 |
| CC1(CCOc2ccc3c(Nc4ccc(Cl)nc4)nccc3c2)COC1 [Example 98, N-(6-chloropyridin-3-yl)-6-(2-(3-methyloxetan-3-yl)ethoxy)isoquinolin-1-amine] | 1 to 10 |
| Cn1cc(CCOc2ccc3c(Nc4ccc(Cl)nc4)nccc3c2)cn1 [Example 99, N-(6-chloropyridin-3-yl)-6-(2-(1-methyl-1H-pyrazol-4-yl)ethoxy)isoquinolin-1-amine] | 1 to 10 |
| O[C@H]1CC[C@@H](Oc2ccc3c(Nc4ccc(Cl)nc4)nccc3c2)CC1 [Example 100, Cis-4-((1-((6-chloropyridin-3-yl)amino)isoquinolin-6-yl)oxy)cyclohexan-1-ol] | < 1 |
| CC(C)(COc1ccc2c(Nc3ccc(Cl)nc3)nccc2c1)N1CCOCC1 [Example 101, N-(6-chloropyridin-3-yl)-6-(2-methyl-2-morpholinopropoxy)isoquinolin-1-amine] | 1 to 10 |
| CO[C@H]1CC[C@@H](Oc2ccc3c(Nc4ccc(Cl)nc4)nccc3c2)CC1 [Example 104, N-(6-chloropyridin-3-yl)-6-(((1s,4s)-4-methoxycyclohexyl)oxy)isoquinolin-1-amine] | 10 to 30 |
| CO[C@H]1CC[C@H](Oc2ccc3c(Nc4ccc(Cl)nc4)nccc3c2)CC1 [Example 105, N-(6-chloropyridin-3-yl)-6-(((1r,4r)-4-methoxycyclohexyl)oxy)isoquinolin-1-amine] | 10 to 30 |
| CC(Cc1cccnc1)Oc1ccc2c(Nc3ccc(Cl)nc3)nccc2c1 (centres unmarked) [Example 106, N-(6-chloropyridin-3-yl)-6-((1-(pyridin-3-yl)propan-2-yl)oxy)isoquinolin-1-amine] | 1 to 10 |
| O=C1OCCN1CCOc1ccc2c(Nc3ccc(Cl)nc3)nccc2c1 [Example 107, 3-(2-((1-((6-chloropyridin-3-yl)amino)isoquinolin-6-yl)oxy)ethyl)oxazolidin-2-one] | 1 to 10 |
| Clc1ccc(Nc2nccc3cc(O[C@@H]4CCCN(Cc5ccccc5)C4)ccc23)cn1 [Example 108, (R)-6-((1-benzylpiperidin-3-yl)oxy)-N-(6-chloropyridin-3-yl)isoquinolin-1-amine] | 1 to 10 |

Next, values leading:

| EC50 [µM] | Structure (SMILES) |
| --- | --- |
| 1 to 10 | CC(CN1CCOCC1)Oc1ccc2c(Nc3ccc(Cl)nc3)nccc2c1 (centres unmarked) [Example 109, N-(6-chloropyridin-3-yl)-6-((1-morpholinopropan-2-yl)oxy)isoquinolin-1-amine] |
| 1 to 10 | CCOC(=O)C1(COc2ccc3c(Nc4ccc(Cl)nc4)nccc3c2)CC1 [Example 110, ethyl 1-(((1-((6-chloropyridin-3-yl)amino)isoquinolin-6-yl)oxy)methyl)cyclopropane-1-carboxylate] |
| 1 to 10 | CC(=O)N1CC[C@H](Oc2ccc3c(Nc4ccc(Cl)nc4)nccc3c2)C1 [Example 111, (S)-1-(3-((1-((6-chloropyridin-3-yl)amino)isoquinolin-6-yl)oxy)pyrrolidin-1-yl)ethan-1-one] |
| 1 to 10 | CC(=O)N1CC[C@@H](Oc2ccc3c(Nc4ccc(Cl)nc4)nccc3c2)C1 [Example 112, (R)-1-(3-((1-((6-chloropyridin-3-yl)amino)isoquinolin-6-yl)oxy)pyrrolidin-1-yl)ethan-1-one] |
| < 1 | Clc1ccc(Nc2nccc3cc(OC4CC5(COC5)C4)ccc23)cn1 [Example 113, 6-((2-oxaspiro[3.3]heptan-6-yl)oxy)-N-(6-chloropyridin-3-yl)isoquinolin-1-amine] |
| < 1 | Clc1ccc(Nc2nccc3cc(OCC4CC5(CCO5)C4)ccc23)cn1 (centres unmarked) [Example 114, 6-((1-oxaspiro[3.3]heptan-6-yl)methoxy)-N-(6-chloropyridin-3-yl)isoquinolin-1-amine] |
| ≥ 30 | Clc1ccc(Nc2nccc3cc(OCC45CCCN4CCC5)ccc23)cn1 [Example 115, N-(6-chloropyridin-3-yl)-6-((tetrahydro-1H-pyrrolizin-7a(5H)-yl)methoxy)isoquinolin-1-amine] |
| 1 to 10 | FC1CN(CCOc2ccc3c(Nc4ccc(Cl)nc4)nccc3c2)C1 [Example 116, N-(6-chloropyridin-3-yl)-6-(2-(3-fluoroazetidin-1-yl)ethoxy)isoquinolin-1-amine] |
| < 1 | Clc1ccc(Nc2nccc3cc(OCc4cnn(C5COC5)c4)ccc23)cn1 [Example 117, N-(6-chloropyridin-3-yl)-6-((1-(oxetan-3-yl)-1H-pyrazol-4-yl)methoxy)isoquinolin-1-amine] |
| 1 to 10 | CS(=O)(=O)N1CCC(Oc2ccc3c(Nc4ccc(Cl)nc4)nccc3c2)CC1 [Example 118, N-(6-chloropyridin-3-yl)-6-((1-(methylsulfonyl)piperidin-4-yl)oxy)isoquinolin-1-amine] |
| 10 to 30 | COCCN1CCC(Oc2ccc3c(Nc4ccc(Cl)nc4)nccc3c2)CC1 [Example 119, N-(6-chloropyridin-3-yl)-6-((1-(2-methoxyethyl)piperidin-4-yl)oxy)isoquinolin-1-amine] |
| 10 to 30 | Clc1ccc(Nc2nccc3cc(OCCn4cccn4)ccc23)cn1 [Example 120, 6-(2-(1H-pyrazol-1-yl)ethoxy)-N-(6-chloropyridin-3-yl)isoquinolin-1-amine] |
| 1 to 10 | O=C(C1CC1)N1CCC(Oc2ccc3c(Nc4ccc(Cl)nc4)nccc3c2)CC1 [Example 121, (4-((1-((6-chloropyridin-3-yl)amino)isoquinolin-6-yl)oxy)piperidin-1-yl)(cyclopropyl)methanone] |
| 1 to 10 | CC(=O)N1CCC[C@H](Oc2ccc3c(Nc4ccc(Cl)nc4)nccc3c2)C1 [Example 122, (S)-1-(3-((1-((6-chloropyridin-3-yl)amino)isoquinolin-6-yl)oxy)piperidin-1-yl)ethan-1-one] |
| < 1 | CC(=O)N1CCC[C@@H](Oc2ccc3c(Nc4ccc(Cl)nc4)nccc3c2)C1 [Example 123, (R)-1-(3-((1-((6-chloropyridin-3-yl)amino)isoquinolin-6-yl)oxy)piperidin-1-yl)ethan-1-one] |
| < 1 | Cc1ncc(Nc2nccc3cc(OCC4(C#N)CC4)ccc23)cn1 [Example 127, 1-(((1-((2-methylpyrimidin-5-yl)amino)isoquinolin-6-yl)oxy)methyl)cyclopropane-1-carbonitrile] |
| 10 to 30 | CN1CC(F)(COc2ccc3c(Nc4ccc(Cl)nc4)nccc3c2)C1 [Example 128, N-(6-chloropyridin-3-yl)-6-((3-fluoro-1-methylazetidin-3-yl)methoxy)isoquinolin-1-amine] |
| 1 to 10 | OCc1ncc(Nc2nccc3cc(OCC4(F)CC4)ccc23)cn1 [Example 129, (5-((6-((1-fluorocyclopropyl)methoxy)isoquinolin-1-yl)amino)pyrimidin-2-yl)methanol] |
| 10 to 30 | CC[C@@H](OC)c1ccc2c(Nc3ccc(Cl)nc3)nccc2c1 [Example 130, (R)—N-(6-chloropyridin-3-yl)-6-(1-methoxypropyl)isoquinolin-1-amine] |
| ≥ 30 | CC[C@H](OC)c1ccc2c(Nc3ccc(Cl)nc3)nccc2c1 [Example 131, (S)—N-(6-chloropyridin-3-yl)-6-(1-methoxypropyl)isoquinolin-1-amine] |
| 10 to 30 | CO[C@H](C)c1ccc2c(Nc3ccc(Cl)nc3)nccc2c1 [Example 132, (R)-N-(6-chloropyridin-3-yl)-6-(1-methoxyethyl)isoquinolin-1-amine] |
| 10 to 30 | CO[C@@H](C)c1ccc2c(Nc3ccc(Cl)nc3)nccc2c1 [Example 133, (S)-N-(6-chloropyridin-3-yl)-6-(1-methoxyethyl)isoquinolin-1-amine] |
| < 1 | N#CCC1(COc2ccc3c(Nc4ccc(Cl)nc4)nccc3c2)COC1 [Example 134, 2-(3-(((1-((6-chloropyridin-3-yl)amino)isoquinolin-6-yl)oxy)methyl)oxetan-3-yl)acetonitrile] |
| < 1 | Clc1ccc(Nc2nccc3cc(O[C@H]4CCC5(COC5)C4)ccc23)cn1 [Example 135, (S)-6-((2-oxaspiro[3.4]octan-6-yl)oxy)-N-(6-chloropyridin-3-yl)isoquinolin-1-amine] |
